Results taken from patent US9546194B2, “Aminosteroids for the treatment of a PTP1B associated disease” (Ohr Pharmaceutical Inc., priority 2012, dated 2017).

Experiments:
[1] = molecular target: T1, full length tyrosine phosphatase PTP1B (Homo sapiens, UniProt P18031); assay: Inhibition of PTP1B (pNPP hydrolysis, absorbance at 405 nm); assay type: biochemical; conditions: 5 μM aminosteroid analogue; pNPP substrate; read-out: PTP1B % Inhib. at (5 μM)
T1 construct: purchased
T1 sequence (P18031 1-435): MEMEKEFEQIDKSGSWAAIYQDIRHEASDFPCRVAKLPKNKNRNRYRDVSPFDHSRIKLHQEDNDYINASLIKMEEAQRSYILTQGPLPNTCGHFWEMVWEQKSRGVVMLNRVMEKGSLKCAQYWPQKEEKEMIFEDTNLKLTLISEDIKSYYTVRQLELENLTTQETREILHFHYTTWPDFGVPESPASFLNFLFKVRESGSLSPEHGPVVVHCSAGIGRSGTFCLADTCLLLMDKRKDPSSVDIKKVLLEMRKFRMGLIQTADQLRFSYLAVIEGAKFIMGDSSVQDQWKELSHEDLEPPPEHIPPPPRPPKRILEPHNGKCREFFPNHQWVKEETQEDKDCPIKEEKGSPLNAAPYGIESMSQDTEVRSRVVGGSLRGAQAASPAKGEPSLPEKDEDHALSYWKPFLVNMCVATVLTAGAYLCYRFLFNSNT
Experimental: (§1) The aminosteroid analogues were tested for inhibition against the commercially available full length tyrosine phosphatase PTP1B. The ability of each analogue to inhibit the activity of PTP1B was measured in the presence of 5 μM of the aminosteroid analogue. The assay uses para-nitro-phenyl phosphate (pNPP), a non-specific substrate to assess phosphatase activity. Phosphatase activity was based on the ability of PTP1B to catalyze the hydrolysis of pNPP to p-nitrophenol (pNP).

[2] = molecular target: T2, full length TCPTP (Homo sapiens, UniProt P17706); assay: Inhibition of TCPTP (pNPP hydrolysis, same manner as PTP1B assay); assay type: biochemical; conditions: 200 μM inhibitor; pNPP substrate; read-out: TCPTP % Inhib. at (200 μM)
T2 construct: except full length TCPTP was used as the enzyme
T2 sequence (P17706 1-415): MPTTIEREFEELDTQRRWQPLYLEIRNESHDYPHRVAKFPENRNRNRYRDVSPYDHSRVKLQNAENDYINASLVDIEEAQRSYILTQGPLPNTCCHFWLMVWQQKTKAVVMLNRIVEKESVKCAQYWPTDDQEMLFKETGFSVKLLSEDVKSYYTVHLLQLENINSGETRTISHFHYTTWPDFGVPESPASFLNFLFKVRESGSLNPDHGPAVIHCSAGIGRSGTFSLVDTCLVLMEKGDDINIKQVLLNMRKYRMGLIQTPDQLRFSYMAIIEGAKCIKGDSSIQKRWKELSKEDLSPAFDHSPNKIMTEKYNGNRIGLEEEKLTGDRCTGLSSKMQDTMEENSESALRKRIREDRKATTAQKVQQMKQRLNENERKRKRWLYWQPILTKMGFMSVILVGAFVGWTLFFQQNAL
Experimental: as §1
The aminosteroid analogues were also tested for their ability to inhibit the tyrosine phosphatase TCPTP as an indication of their potential toxicity by the inhibition of the immune response. The TCPTP inhibition assay was done in the same manner as the PTP1B assay except full length TCPTP was used as the enzyme and the inhibitor was at a concentration of 200 μM. The results of the TCPTP inhibition assays are shown in Table 1, column 4 and show three compounds that inhibit TCPTP less than 50% even at a […] greater concentration.

[3] = Body weight change in ob/ob mouse; assay type: in vivo; conditions: ob/ob mice; 5 or 10 mg/kg ip every 3 days, 4 doses; % change in body weight vs study day 0, up to 30 days
Experimental: (§2) To determine in vivo efficacy of the aminosteroid analogues an ob/ob (Lep^ob) mouse model was used. Ob/ob mice are extensively used for screening of antidiabetic and/or anti-obesity agents. Ob/ob mice were treated with either saline or 5 or 10 mg/kg aminosteroid analogue every 3 days for a total of 4 doses via ip injection. Body weight, glucose tolerance and fasting blood glucose levels were measured for each group during the study. Each group had at least an N of 4 animals. All reagents and lab animals are commercially available.
Starting at study day 0, body weight measurements were taken every day for each group for up to 30 days. Percent change in body weight was calculated as the fractional response of body weight on study day X over the original body weight on study day 0.

[4] = test system: ob/ob (Lep^ob) mouse; assay: Fasting blood glucose (FBG) in ob/ob mouse; assay type: in vivo; conditions: ob/ob mice; 5 or 10 mg/kg ip every 3 days, 4 doses; study day 14 after overnight fast
Experimental: as §2
On study day 13, all animal groups were fasted overnight. On study day 14, 25 μL of whole blood was collected and analyzed for the glucose level (mg/dL) using a glucose analyzer.

[5] = test system: ob/ob (Lep^ob) mouse; assay: Oral glucose tolerance test (OGTT) in ob/ob mouse; assay type: in vivo; conditions: ob/ob mice; for change in vivo: Mus musculus, 336 h, 5 or 10 mg/kg ip every 3 days, 4 doses, OGTT study day 14, 1.5 g/kg oral glucose, 0-120 min, read-out: AbAUC % Change From Saline; for reduction in AbAUC compared to saline control (significance): OGTT study day 14, p<0.05
Experimental: as §2
On study day 14, an oral glucose tolerance test (OGTT) was performed to assess glucose tolerance. At time 0, an oral glucose challenge (1.5 g/kg) was administered by oral gavage. At time points 0, 15, 30, 60, 90, and 120 min post glucose load, 25 μl of whole blood was withdrawn from the tail vein of the animal and the glucose level was measured using a glucose analyzer. The glucose concentration vs time was plotted and the above baseline area under the curve (AbAUC) of the glucose excursion time curve was determined using trapezoidal rule analyses.

SMILES | inhibition at 5 µM [1] [%] | inhibition at 200 µM [2] [%] | % BW Nader [3] [%] | FBG % Change From Saline [4] [%] | change in vivo [5] [%] | reduction in AbAUC compared to saline control (significance) [5]
COC(=O)CC[C@@H](C)[C@H]1CCC2C3C[C@@H](O)[C@H]4C[C@H](NCCNC(C)C)CC[C@]4(C)C3CC[C@@]21C (stereo partly shown) [MSI-2514] | 96 | 30 | −1.5 | 9.2 | -11.6 | –
CCN(C(=O)NCCCN(C)C)C(=O)C(C)[C@H]1CCC2C3CC[C@H]4CC(NCCNC)CC[C@]4(C)C3CC[C@@]21C (stereo partly shown) [MSI-2501] | 0 | – | – | – | – | –
COC(=O)CC[C@@H](C)[C@H]1CCC2C3CC[C@@H]4C[C@H](NCCNC(C)C)CC[C@]4(C)C3CC[C@@]21C (stereo partly shown) [MSI-2521] | 103 | 67 | – | – | – | –
COC(=O)CC[C@@H](C)[C@H]1CCC2C3C(CC[C@@]21C)[C@@]1(C)CCC(NCCNC(C)C)C[C@@H]1C[C@H]3NC(=O)OC (stereo partly shown) [MSI-2528] | 75 | 2 | – | – | – | –
COC(=O)CC[C@@H](C)[C@H]1CCC2C3C(CC[C@@]21C)[C@@]1(C)CC[C@H](NCCCCNCc2cccnc2)C[C@@H]1C[C@H]3O (stereo partly shown) [MSI-2511] | 93 | 0 | −0.9 | 5.1 | -34.6 | significant reduction
COC(=O)CC[C@@H](C)[C@H]1CCC2C3CC[C@@H]4CC(NCCN(C)C)CC[C@]4(C)C3CC[C@@]21C (stereo partly shown) [MSI-2535] | – | 8 | – | – | – | –
CC(C)NCCNC1CC[C@]2(C)C3CC[C@@]4(C)C(CC[C@@H]4[C@H](C)CCC(=O)O)C3C[C@@H](O)[C@H]2C1 (stereo partly shown) [MSI-2515] | 89 | 19 | – | – | – | –
CC(C)CCC[C@@H](C)[C@H]1CCC2C3C[C@@H](O)[C@H]4C[C@@H](NCCN)CC[C@]4(C)C3CC[C@@]21C (stereo partly shown) [MSI-2502] | 0 | – | – | – | – | –
COC(=O)CC[C@@H](C)[C@H]1CCC2C3C(CC[C@@]21C)[C@@]1(C)CCC(NCCNC(C)C)C[C@@H]1C[C@H]3NS(C)(=O)=O (stereo partly shown) [MSI-2527] | 102 | 15 | 0.0 | 32.2 | -33 | significant reduction
COC(=O)CC[C@@H](C)[C@H]1CCC2C3C(CC[C@@]21C)[C@@]1(C)CCC(NCCNC(C)C)C[C@@H]1C[C@H]3O (stereo partly shown) [MSI-2519] | 102 | 26 | – | – | – | –
COC(=O)CC[C@@H](C)[C@H]1CCC2C3CC[C@@H]4C[C@@H](NCCNC(C)C)CC[C@]4(C)C3CC[C@@]21C (stereo partly shown) [MSI-2522] | 104 | 50 | – | – | – | –
CC(C)CCC[C@@H](C)[C@H]1CCC2C3C[C@@H](O)[C@H]4C[C@H](NCCCNCCCCN)CC[C@]4(C)C3CC[C@@]21C (stereo partly shown) [MSI-2506] | 60 | 60 | – | – | – | –
COC(=O)CC[C@@H](C)[C@H]1CCC2C3C(CC[C@@]21C)[C@@]1(C)CC[C@@H](NCCCCNCc2cccnc2)C[C@@H]1C[C@H]3O (stereo partly shown) [MSI-2510] | 72 | 23 | 1.6 | 12.0 | -32.9 | significant reduction
COC(=O)CC[C@@H](C)[C@H]1CCC2C3C(CC[C@@]21C)[C@@]1(C)CC[C@H](NCCNC(C)C)C[C@@H]1C[C@H]3S(C)(=O)=O (stereo partly shown) [MSI-2531] | 48 | 1 | – | – | – | –
